{"source": "patent US20100209934A1", "about": "“METHOD OF IDENTIFYING AGENTS WHICH MODULATE THE ACTIVITY OF CALCIUM-ACTIVATED CHLORIDE CHANNEL” (SNU R&DB FOUNDATION, priority 2007, published 2010)", "key": {"mouse ANO1": {"tested_on": "mouse ANO1", "assay": "Whole-cell current recording in mouse ANO1 stable HEK cell line", "format": "cell-based", "conditions": "500 nM ionomycin, mANO1 stable HEK cell line", "experimental": "A stable cell line (HEK cells) that constitutively over-expresses mANO1 is constructed for high throughput screening analysis. In order to test whether the HEK cell line elicits ANO1 currents, ionomycin was applied. Application of ionomycin evoked a robust inward Cl^− currents in a whole cell. Pipette and bath solutions contained 140 mM NMDG-Cl.\nHEK293 cells were transfected with pEGFP-N-1-mANO1 using Lipofectamine (Invitrogen Corp., Carlsbad, Calif.). After selection in 800 μg/ml geneticin (Invitrogen Corp., Carlsbad, Calif.) for 15 days, single colonies were picked with cloning cylinders and tested for activity of ANO1.\nTo detect active compounds from chemical libraries or other sources of chemicals, a stable cell line, that constitutively expresses mouse ANO1, was constructed in accordance with the method of Reference Example 7. To construct a stable cell line, mouse ANO1 DNA was incorporated to the genomic DNA of human embryonic kidney (HEK) cells.\nThis confirms that ANO1 is constitutively expressed in the stable cell line."}, "mANO1": {"biological_target": "T1, mANO1 (Mus musculus, UniProt Q8BHY3, S527P)", "T1 sequence (Q8BHY3 1-960 S527P)": "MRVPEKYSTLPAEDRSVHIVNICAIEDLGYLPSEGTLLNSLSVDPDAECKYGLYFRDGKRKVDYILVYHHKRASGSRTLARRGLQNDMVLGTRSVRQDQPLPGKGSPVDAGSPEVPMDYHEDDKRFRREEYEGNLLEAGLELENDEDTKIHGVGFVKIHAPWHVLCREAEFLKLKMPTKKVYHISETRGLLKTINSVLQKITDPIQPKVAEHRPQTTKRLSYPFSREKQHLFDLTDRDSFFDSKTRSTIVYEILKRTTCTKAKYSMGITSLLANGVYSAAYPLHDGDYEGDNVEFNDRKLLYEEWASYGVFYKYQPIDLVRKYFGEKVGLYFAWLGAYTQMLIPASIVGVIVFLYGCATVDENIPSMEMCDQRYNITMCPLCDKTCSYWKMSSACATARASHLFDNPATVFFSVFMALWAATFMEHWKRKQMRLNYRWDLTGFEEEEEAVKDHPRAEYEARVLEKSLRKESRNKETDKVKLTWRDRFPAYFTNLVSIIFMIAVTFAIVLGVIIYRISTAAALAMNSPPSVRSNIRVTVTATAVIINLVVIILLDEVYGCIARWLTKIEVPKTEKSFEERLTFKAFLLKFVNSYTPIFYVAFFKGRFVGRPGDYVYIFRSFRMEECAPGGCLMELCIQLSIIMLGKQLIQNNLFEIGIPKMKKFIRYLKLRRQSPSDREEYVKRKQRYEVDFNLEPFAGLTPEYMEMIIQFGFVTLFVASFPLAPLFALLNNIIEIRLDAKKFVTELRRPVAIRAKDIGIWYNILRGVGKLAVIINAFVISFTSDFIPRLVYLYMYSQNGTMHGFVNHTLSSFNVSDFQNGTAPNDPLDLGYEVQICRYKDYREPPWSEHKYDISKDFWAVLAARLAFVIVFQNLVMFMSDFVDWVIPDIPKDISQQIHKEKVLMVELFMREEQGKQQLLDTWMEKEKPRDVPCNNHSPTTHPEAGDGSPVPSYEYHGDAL", "assay": "Two-electrode voltage clamp currents in Xenopus oocytes injected with mANO1 complementary RNA", "format": "cell-based", "parameters": "expressed in transfected cells; host or cells: Xenopus laevis oocytes (cRNA injection)", "conditions": "ionomycin 4 μM; mANO1 expressing oocytes", "experimental": "pSDTF-mANO1 obtained in Reference Example 1 was linearized using BamHI. Complementary RNA was transcribed with SP6 RNA polymerase (mMESSAGE mMACHINE® SP6 Kit, Ambion, Austin, Tex.). After being defolliculated with collagenase (Type IA, Sigma), Xenopus laevis oocytes were injected with 50 ng of the complementary RNAs of mANO1 in 50 nl of diethylpyrocarbonate-treated water. Two to five days after the injection, whole cell currents were recorded using the two-electrode voltage clamp technique. The bath solution contained 96 mM NaCl, 1 mM MgCl2, 5 mM HEPES, 2 mM KCl and 1.8 mM CaCl2 at pH 7.5 and was perfused at 2 ml/min. Experiments were performed at room temperature.\nXenopus oocytes provide a recognized model for endogenous CaCC studies because they express endogenous CaCCs that are required for ‘fertilization depolarization’ (Hartzell, H. C. et al., Mol Pharmacol 51, 683-92 (1997)). Furthermore, the biophysical and pharmacological properties of Xenopus CaCCs are similar to those of mammalian CaCCs (Machaca, K. et al., Calcium-Activated Chloride Channels (ed. Fuller, C. M.) (Academic Press, Amsterdam, 2002)). Accordingly, the present inventors expressed mANO1 in Xenopus oocytes and tested its activation by receptor stimulation using 1 μM LPA (lysophosphatidic acid). CaCCs in Xenopus are known to be activated by LPA (Guo, Z. et al., Proc Natl Acad Sci USA. 93, 14367-72 (1996); and Kim, M. J. et al., Biochem Pharmacol. 59, 241-7 (2000)). […] Moreover, LPA-induced ANO1 currents were outwardly-rectifying, like those of native CaCCs in Xenopus oocytes (Machaca, K. et al., supra) (FIG. 4C). The reversal potential was 37.7±1.05 mV (n=5), which is close to the equilibrium potential of Cl^− in Xenopus oocytes (Weber, W., Biochim Biophys Acta 1421, 213-33 (1999)).\nIndeed, LPA (1 μM) applied to oocytes expressing mANO1 induced a large inward current.\nFurther, pretreatment of 1 μM thapsigargin blocked the IP3-induced current in a mANO1-expressing oocyte (FIGS. 10C and 10D).\nLPA-induced ANO1 currents were blocked by Cl^− channel blockers. The Cl^− channel blockers were applied 10˜20 min before the LPA application. […] This blockade of agonist-induced ANO1 currents by DIDS, niflumic acid, or NPPB were also observed in mammalian cells transfected with mANO1."}}, "data": [{"smiles": "C[C@H](CCC(=O)O)C[C@H](C)C[C@H](C)C(=O)/C=C(\\O)[C@H](C)C[C@H](C)C/C=C/[C@@H](C)[C@@H](O)[C@@H](C)[C@@H](O)C[C@@H]1CC[C@@](C)([C@H]2CC[C@@](C)([C@@H](C)O)O2)O1", "note": "[ionomycin]", "values": [{"measurement": "inward current evoked by ionomycin", "setting": "mouse ANO1", "value": "robust inward current"}, {"measurement": "activation of mANO1 by Ca2+ ionophore", "setting": "mANO1", "value": "Activation"}]}]}
